Legend:
Assay type in all cases: in vivo
[1] = tested on: Chenopodium; assay: Pre-emergence herbicidal action (Example B1); conditions: 250 gr/ha, sprayed immediately after sowing, evaluated after 3 weeks; scale of ten ratings 10=total damage, 0=no action
Excerpt: (§1) Monocotyledonous and dicotyledonous test plants are sown in standard soil in plastic pots. Immediately after sowing, the test compounds, in the form of an aqueous suspension (prepared from a 25% wettable powder (Example F3, b) according to WO 97/34485) or in the form of an emulsion (prepared from a 25% emulsifiable concentrate (Example F1, c)), are applied by spraying in a concentration corresponding to 125 g or 250 g of active ingredient/ha (500 liters of water/ha). The test plants are then grown in a greenhouse under optimum conditions. After a test duration of 3 weeks, the test is evaluated in accordance with a scale of ten ratings (10=total damage, 0=no action). Ratings of from 10 to 6 (especially from 10 to 8) indicate good to very good herbicidal action.

[2] = tested on: Kochia; assay: Pre-emergence herbicidal action (Example B1); conditions: 250 gr/ha, sprayed immediately after sowing, evaluated after 3 weeks; scale of ten ratings 10=total damage, 0=no action
Excerpt: as §1

[3] = tested on: Panicum; assay: Pre-emergence herbicidal action (Example B1); conditions: 250 gr/ha, sprayed immediately after sowing, evaluated after 3 weeks; scale of ten ratings 10=total damage, 0=no action
Excerpt: as §1

[4] = tested on: Echinochloa; assay: Pre-emergence herbicidal action (Example B1); conditions: 250 gr/ha, sprayed immediately after sowing, evaluated after 3 weeks; scale of ten ratings 10=total damage, 0=no action
Excerpt: as §1

[5] = tested on: Amaranthus; assay: Pre-emergence herbicidal action (Example B1); conditions: 250 gr/ha, sprayed immediately after sowing, evaluated after 3 weeks; scale of ten ratings 10=total damage, 0=no action
Excerpt: as §1

[6] = tested on: Abutilon; assay: Pre-emergence herbicidal action (Example B1); conditions: 250 gr/ha, sprayed immediately after sowing, evaluated after 3 weeks; scale of ten ratings 10=total damage, 0=no action
Excerpt: as §1

[7] = tested on: Chenopodium; assay: Post-emergence herbicidal action (Example B2); conditions: 250 gr/ha, sprayed at 4- to 6-leaf stage, evaluated after about 18 days; scale 10=total damage, 0=no action
Procedure: (§2) In a greenhouse, monocotyledonous and dicotyledonous test plants are grown in standard soil in plastic pots and at the 4- to 6-leaf stage are sprayed with an aqueous suspension of the test compounds of formula I prepared from a 25% wettable powder (Example F3, b) according to WO 97/34485) or with an emulsion of the test compounds of formula I prepared from a 25% emulsifiable concentrate (Example F1, c) according to WO 97/34485), in a concentration corresponding to 125 g or 250 g of active ingredient/ha (500 liters of water/ha). The test plants are then grown on in a greenhouse under optimum conditions. After a test duration of about 18 days, the test is evaluated in accordance with a scale of ten ratings (10=total damage, 0=no action). Ratings of from 10 to 6 (especially from 10 to 7) indicate good to very good herbicidal action.

[8] = tested on: Stellaria; assay: Post-emergence herbicidal action (Example B2); conditions: 250 gr/ha, sprayed at 4- to 6-leaf stage, evaluated after about 18 days; scale 10=total damage, 0=no action
Procedure: as §2

[9] = tested on: Ipomea; assay: Post-emergence herbicidal action (Example B2); conditions: 250 gr/ha, sprayed at 4- to 6-leaf stage, evaluated after about 18 days; scale 10=total damage, 0=no action
Procedure: as §2

[10] = tested on: Amaranthus; assay: Post-emergence herbicidal action (Example B2); conditions: 250 gr/ha, sprayed at 4- to 6-leaf stage, evaluated after about 18 days; scale 10=total damage, 0=no action
Procedure: as §2

[11] = tested on: Polygonum; assay: Comparison test with prior art compound, post-emergence herbicidal action (Example B3); conditions: 15 gr/ha, rating scale 10=total damage, 0=no action
Procedure: (§3) […] The test plants are then grown on in a greenhouse under optimum conditions. After a test duration of about 18 days, the test is evaluated in accordance with a scale of ten ratings (10=total damage, 0=no action). Ratings of from 10 to 6 (especially from 10 to 7) indicate good to very good herbicidal action. […] Examples of the good herbicidal action of the compounds are given in Table B2: The post-emergence herbicidal action of compound No. 1.0411 according to the invention is compared with compound “A” from WO 01/94339:

[12] = tested on: Sida; assay: as above; conditions: 15 gr/ha, rating scale 10=total damage, 0=no action
Procedure: as §3

[13] = tested on: Galium; assay: as above; conditions: 15 gr/ha, rating scale 10=total damage, 0=no action
Procedure: as §3

[14] = tested on: Brachiaria; assay: as above; conditions: 15 gr/ha, rating scale 10=total damage, 0=no action
Procedure: as §3

[15] = tested on: Sinapis; assay: as above; conditions: 15 gr/ha, rating scale 10=total damage, 0=no action
Procedure: as §3

[16] = tested on: Rottboelia; assay: as above; conditions: 15 gr/ha, rating scale 10=total damage, 0=no action
Procedure: as §3

[17] = tested on: weeds; assay: Comparison test post-emergence (Example B3), overall; conditions: rate of application of 15 g/ha
Excerpt: This enhanced action was not to be expected in view of the structural similarity of the compounds.

Compound | Pre-emergence herbicidal action: Chenopodium [1] | Pre-emergence herbicidal action: Kochia [2] | Pre-emergence herbicidal action: Panicum [3] | Pre-emergence herbicidal action: Echinochloa [4] | Pre-emergence herbicidal action: Amaranthus [5] | Pre-emergence herbicidal action: Abutilon [6] | Post-emergence herbicidal action: Chenopodium [7] | Post-emergence herbicidal action: Stellaria [8] | Post-emergence herbicidal action: Ipomea [9] | Post-emergence herbicidal action: Amaranthus [10] | Post-emergence action: Polygonum [11] | Post-emergence action: Sida [12] | Post-emergence action: Galium [13] | Post-emergence action: Brachiaria [14] | Post-emergence action: Sinapis [15] | Post-emergence action: Rottboelia [16] | herbicidal action on the weeds compared with compound A (in words) [17]
COCCOCc1nc(C(F)(F)F)ccc1C(=O)C1=C(O)C2(C)C=CC(C)(O2)C1=O (stereo not shown) [1.0301] | 9 | 8 | 7 | 7 | 8 | 7 | 8 | 8 | 8 | 8 |  |  |  |  |  |  | 
COCCOCc1nc(C(F)(F)F)ccc1C(=O)C1=C(O)C2C=CC(C2)C1=O (stereo not shown) [1.0411] | 10 | 10 | 10 | 9 | 10 | 10 | 10 | 9 | 10 | 9 | 8 | 8 | 6 | 10 | 8 | 3 | considerably better herbicidal action
Cc1nc(C(F)(F)F)ccc1C(=O)C1=C(O)C2C=CC(C1=O)C21CC1 (stereo not shown) [1.1153] |  |  |  |  |  |  | 8 | 10 | 8 | 7 |  |  |  |  |  |  | 
COCCOCc1nc(C(F)(F)F)ccc1C(=O)C1C(=O)C2CCC(C2)C1=O (stereo not shown) [A, reference compound] |  |  |  |  |  |  |  |  |  |  | 5 | 7 | 5 | 4 | 6 | 0 | 
